# Source: BindingDB's records for doi:10.1021/jm0205043 (University of California, 2003)
# Target: Cyclin-dependent kinase 2 (Homo sapiens, UniProt P24941)
# Experiment: Inhibition of Cyclin-dependent kinase 2 (CDK2)
compound,measurement,value
"CN1CCC(c2c(O)cc(O)c3c(O)c(Cc4ccc([N+](=O)[O-])cc4)oc23)CC1 [4,6-Dihydroxy-7-(1-methyl-piperidin-4-yl)-2-(4-nitro-benzylidene)-benzofuran-3-one]",IC50,310 nM
